This is an account of results in publication PMC4579270, “Identification and Characterization of an Irreversible Inhibitor of CDK2” (Chemistry & Biology, 2015).

SMILES strings stand for the structures.

Holding throughout (test): Dundee protein kinase screen
Format in all cases: biochemical

The target of one assay is PAK5 (Homo sapiens, UniProt Q9P286). The settings on record: PAK5, 1µM; read-out: %Remaining activity at 1µM NU6300. The protocol:
(§1) Prior to determining its cellular activity, we carried out a screen to assess its selectivity against a panel of 131 protein kinases under conditions that would not distinguish between a reversible or irreversible mode of action. […] These 13 kinases and 29 additional kinases, selected for their known sensitivity to other inhibitors within the purine series, were then tested in a modified screening format in which the assay was repeated following a 4-hr pre-incubation (Table S3B). […] However, conformational flexibility around the active site may promote such an interaction with a residue from another part of the structure ([Martin et al., 2012]).
(§2) Table S3, Related to Figure 4. NCL-0006300 protein kinase selectivity. (A) NU6300 was tested at a single concentration of 1µM against 131 protein kinases present in a Dundee protein kinase screen (Bain et al., 2007). Values given are % activity remaining and are the average of duplicate measurements: 0-25% (red), 26-50% (yellow), 51-80% […]
(§3) (black) and above 81% (green). […]

The target in a further assay is PKCα (Homo sapiens, UniProt P17252). Conditions: read-out: %Remaining activity at 1µM NU6300. How it is done: as §1, §2, §3
Another assay has as its target STK33 (Homo sapiens, UniProt Q9BYT3). Conditions: STK33, 1µM; read-out: %Remaining activity at 1µM NU6300. The protocol:
as §1, §2, §3

For the next assay, the target named is Src (Homo sapiens, UniProt P12931). The settings on record: read-out: %Remaining activity at 1µM NU6300. The protocol:
as §1, §2, §3

Another assay addresses TLK1 (Homo sapiens, UniProt Q9UKI8). Conditions: TLK1, 1µM; read-out: %Remaining activity at 1µM NU6300. The protocol: as §1, §2, §3
The next assay deals with T1, TTK (Homo sapiens, UniProt P33981).
T1 sequence (P33981 1-857): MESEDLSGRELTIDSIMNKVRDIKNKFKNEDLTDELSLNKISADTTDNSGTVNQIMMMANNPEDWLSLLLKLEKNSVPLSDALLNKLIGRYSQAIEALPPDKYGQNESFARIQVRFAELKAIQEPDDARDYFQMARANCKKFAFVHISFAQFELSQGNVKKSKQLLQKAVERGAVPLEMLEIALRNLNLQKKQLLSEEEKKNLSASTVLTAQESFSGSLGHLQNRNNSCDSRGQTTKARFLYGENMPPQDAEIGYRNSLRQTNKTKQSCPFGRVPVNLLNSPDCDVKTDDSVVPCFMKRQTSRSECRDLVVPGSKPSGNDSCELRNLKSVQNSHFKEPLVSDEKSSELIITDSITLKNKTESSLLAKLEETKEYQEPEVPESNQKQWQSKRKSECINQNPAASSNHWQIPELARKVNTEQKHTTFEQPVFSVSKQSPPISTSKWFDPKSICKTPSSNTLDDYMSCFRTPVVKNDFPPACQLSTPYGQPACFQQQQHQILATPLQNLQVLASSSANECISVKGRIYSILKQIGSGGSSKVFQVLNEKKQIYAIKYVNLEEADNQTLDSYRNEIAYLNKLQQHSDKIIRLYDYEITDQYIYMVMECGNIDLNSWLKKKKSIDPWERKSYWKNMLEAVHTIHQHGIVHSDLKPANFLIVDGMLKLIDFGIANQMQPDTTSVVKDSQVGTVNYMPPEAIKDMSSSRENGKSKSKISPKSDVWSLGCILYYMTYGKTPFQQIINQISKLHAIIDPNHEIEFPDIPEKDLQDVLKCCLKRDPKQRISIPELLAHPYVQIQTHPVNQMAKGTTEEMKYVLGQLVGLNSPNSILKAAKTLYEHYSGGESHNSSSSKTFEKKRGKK
The settings on record: read-out: %Remaining activity at 1µM NU6300. The protocol:
as §1, §2, §3

The next assay deals with WNK1 (Homo sapiens, UniProt Q9H4A3). Conditions: WNK1, 1µM; read-out: %Remaining activity at 1µM NU6300. The protocol: as §1, §2, §3

Chain of PAK5 (Q9P286 whole entry): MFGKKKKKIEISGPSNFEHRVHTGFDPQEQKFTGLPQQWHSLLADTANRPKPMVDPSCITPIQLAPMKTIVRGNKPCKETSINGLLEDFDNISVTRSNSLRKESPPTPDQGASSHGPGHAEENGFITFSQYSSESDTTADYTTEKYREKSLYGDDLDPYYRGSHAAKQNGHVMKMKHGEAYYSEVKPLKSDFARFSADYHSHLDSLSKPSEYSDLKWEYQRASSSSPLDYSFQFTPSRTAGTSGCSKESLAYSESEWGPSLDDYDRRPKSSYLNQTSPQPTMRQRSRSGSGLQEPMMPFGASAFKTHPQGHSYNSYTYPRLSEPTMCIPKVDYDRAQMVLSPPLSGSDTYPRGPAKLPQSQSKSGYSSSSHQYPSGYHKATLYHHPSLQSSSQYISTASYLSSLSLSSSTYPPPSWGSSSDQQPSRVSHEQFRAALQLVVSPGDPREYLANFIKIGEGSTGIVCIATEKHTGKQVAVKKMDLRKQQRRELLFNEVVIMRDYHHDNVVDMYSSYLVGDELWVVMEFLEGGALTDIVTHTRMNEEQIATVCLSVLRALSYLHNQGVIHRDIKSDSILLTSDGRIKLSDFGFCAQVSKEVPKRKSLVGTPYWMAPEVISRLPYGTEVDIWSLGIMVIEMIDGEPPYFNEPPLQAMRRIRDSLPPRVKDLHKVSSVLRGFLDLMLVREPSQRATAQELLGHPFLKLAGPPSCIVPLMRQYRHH
Chain of STK33 (Q9BYT3 whole entry): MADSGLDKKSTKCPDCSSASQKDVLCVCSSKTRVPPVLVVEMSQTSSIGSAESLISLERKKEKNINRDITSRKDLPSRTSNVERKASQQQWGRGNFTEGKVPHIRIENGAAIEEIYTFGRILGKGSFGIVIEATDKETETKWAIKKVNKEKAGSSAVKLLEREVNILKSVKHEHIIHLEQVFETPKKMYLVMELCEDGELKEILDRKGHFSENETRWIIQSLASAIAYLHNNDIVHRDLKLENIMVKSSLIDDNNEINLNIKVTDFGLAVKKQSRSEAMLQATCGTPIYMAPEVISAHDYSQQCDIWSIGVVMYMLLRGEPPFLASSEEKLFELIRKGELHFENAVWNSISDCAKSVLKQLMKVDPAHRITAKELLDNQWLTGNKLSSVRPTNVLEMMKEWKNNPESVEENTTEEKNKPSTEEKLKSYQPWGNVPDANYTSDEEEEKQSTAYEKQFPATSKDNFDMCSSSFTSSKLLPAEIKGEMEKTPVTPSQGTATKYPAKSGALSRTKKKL
Chain of Src (P12931 whole entry): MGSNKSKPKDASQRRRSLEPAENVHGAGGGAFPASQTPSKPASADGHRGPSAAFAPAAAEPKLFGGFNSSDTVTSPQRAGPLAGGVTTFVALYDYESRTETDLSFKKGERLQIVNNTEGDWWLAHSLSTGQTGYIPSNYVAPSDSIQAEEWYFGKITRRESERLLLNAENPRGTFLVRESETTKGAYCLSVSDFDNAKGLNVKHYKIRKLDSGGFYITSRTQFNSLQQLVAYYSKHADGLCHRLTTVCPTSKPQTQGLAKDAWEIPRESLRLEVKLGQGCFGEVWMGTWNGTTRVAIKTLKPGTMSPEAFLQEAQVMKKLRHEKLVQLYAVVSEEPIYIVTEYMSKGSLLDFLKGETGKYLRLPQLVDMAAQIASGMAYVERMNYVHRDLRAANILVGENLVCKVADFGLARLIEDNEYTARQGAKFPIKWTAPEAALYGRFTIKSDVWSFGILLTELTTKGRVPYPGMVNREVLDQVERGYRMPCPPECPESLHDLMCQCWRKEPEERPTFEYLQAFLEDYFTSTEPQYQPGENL
Chain of TLK1 (Q9UKI8 whole entry): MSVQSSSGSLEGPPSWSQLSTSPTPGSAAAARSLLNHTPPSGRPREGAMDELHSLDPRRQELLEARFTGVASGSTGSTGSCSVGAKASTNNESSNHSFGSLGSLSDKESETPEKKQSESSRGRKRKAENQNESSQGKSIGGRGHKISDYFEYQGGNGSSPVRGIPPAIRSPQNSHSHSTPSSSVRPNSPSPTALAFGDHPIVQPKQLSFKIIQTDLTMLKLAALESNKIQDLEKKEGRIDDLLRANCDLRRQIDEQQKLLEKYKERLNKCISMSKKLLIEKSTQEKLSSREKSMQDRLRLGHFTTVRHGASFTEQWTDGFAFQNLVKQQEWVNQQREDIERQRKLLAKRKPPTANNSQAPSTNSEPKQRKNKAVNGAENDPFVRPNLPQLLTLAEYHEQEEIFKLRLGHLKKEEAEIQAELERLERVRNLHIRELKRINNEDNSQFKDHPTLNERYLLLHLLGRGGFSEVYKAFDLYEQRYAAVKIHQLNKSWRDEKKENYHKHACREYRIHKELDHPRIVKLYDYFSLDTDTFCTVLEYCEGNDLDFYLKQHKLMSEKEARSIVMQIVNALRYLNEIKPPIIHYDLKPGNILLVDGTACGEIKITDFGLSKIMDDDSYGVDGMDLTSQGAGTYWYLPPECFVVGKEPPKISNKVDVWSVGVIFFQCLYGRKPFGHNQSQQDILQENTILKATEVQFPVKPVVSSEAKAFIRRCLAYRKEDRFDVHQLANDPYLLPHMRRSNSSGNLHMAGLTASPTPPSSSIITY

As usually defined, the remaining activity is the signal under treatment as a percentage of the control signal. With `C=CS(=O)(=O)c1ccc(Nc2nc(OCC3CCCCC3)c3nc[nH]c3n2)cc1` [NU6300, 6-(cyclohexylmethoxy)-N-(4-(vinylsulfonyl)phenyl)-9H-purin-2-amine], the remaining activity at 1 µM came to 48% on PAK5; 86% at PKCα; 59% on STK33; 39% at Src; 52% at TLK1; 29% on TTK. Further, the remaining activity at 1 µM on WNK1 is 103%.
